Test results published in Sander's compilation of Henry's law constants (doi:10.1021/ac0604742).

Test: Henry solubility constant Hcp at 298.15 K (mol/(m3 Pa))
Conditions: reference: Fang et al. (2006)

Compound | Henry solubility constant Hcp
Clc1cc(-c2ccc(Cl)c(Cl)c2Cl)cc(Cl)c1Cl [2,3,3',4,4',5'-hexachlorobiphenyl] | 0.06
Clc1ccc(-c2cc(Cl)c(Cl)c(Cl)c2)cc1Cl [3,3',4,4',5-pentachlorobiphenyl] | 0.1
Clc1ccc(-c2cc(Cl)c(Cl)c(Cl)c2)c(Cl)c1 [2,3',4,4',5'-pentachlorobiphenyl] | 0.046
Clc1ccc(-c2ccc(Cl)c(Cl)c2Cl)cc1Cl [2,3,3',4,4'-pentachlorobiphenyl] | 0.18
Clc1ccc(-c2cc(Cl)c(Cl)c(Cl)c2Cl)cc1Cl [2,3,3',4,4',5-hexachlorobiphenyl] | 0.068
Clc1ccc(-c2cc(Cl)c(Cl)cc2Cl)cc1Cl [2,3',4,4',5-pentachlorobiphenyl] | 0.057
Clc1ccc(-c2cc(Cl)c(Cl)c(Cl)c2)cc1 [3,4,4',5-tetrachlorobiphenyl] | 0.088
Clc1cc(Cl)c(-c2cc(Cl)c(Cl)c(Cl)c2)cc1Cl [2,3',4,4',5,5'-hexachlorobiphenyl] | 0.078
Clc1ccc(-c2ccc(Cl)c(Cl)c2)cc1Cl [3,3',4,4'-tetrachlorobiphenyl] | 0.091
Clc1cc(-c2cc(Cl)c(Cl)c(Cl)c2)cc(Cl)c1Cl [3,3',4,4',5,5'-hexachlorobiphenyl] | 0.081
Clc1cc(-c2cc(Cl)c(Cl)c(Cl)c2Cl)cc(Cl)c1Cl [2,3,3',4,4',5,5'-heptachlorobiphenyl] | 0.084
